The values that follow come from ChEMBL document CHEMBL3352493, “Xylarianaphthol-1, a novel dinaphthofuran derivative, activates p21 promoter in a p53-independent manner” (Bioorg Med Chem Lett, 2014).

The subject of assay [1] is MG-63. Description: Induction of p53-independent p21 promoter activation (unknown origin) transfected in human MG63 cells expressing luciferase reporter gene by luciferase reporter gene assay. The format is cell-based.
Assay [2] concerns MG-63. Briefly: Induction of p53-independent p21 promoter activation (unknown origin) transfected in human MG63 cells expressing luciferase reporter gene at 0.3 uM by luciferase reporter gene assay relative to control. The format is cell-based.
In assay [3] the test system is MG-63. Briefly: Increase in p21 protein expression in wild-type human MG63 cells at 0.01 to 0.3 uM by Western blotting method. The format is functional, cell-based. For orientation: A western blot detects proteins with antibodies after separation by electrophoresis.

Activity calls are given as the source filed them. The calls are words filed in the database; no cut-off is given here.

In the case of `COc1cccc2c1c(O)cc1oc3c(ccc4cccc(O)c43)c12`, in assay [1], the Activity result is “Dose-dependent effect”. In assay [2], the fold change (FC) was 2.5. The outcome in assay [3] was Active.
